# Experimental data as given in patent US20230323336A1, “HIGH-THROUGHPUT, DROPLET-BASED SINGLE CELL RNA SEQUENCING” (priority 2021, published 2023).
# Experiments:
# [1] = test system: K. pneumoniae MGH66; type: cell-based
# Protocol: (§1) K.pneumoniae, E.coli, and P. aeruginosa were cultured in Luria-Bertani (LB) medium or Mueller-Hinton Broth (MHB) with shaking at 37° C.E.faecium was cultured in Todd-Hewitt broth (THB) with shaking at 37° C. For the GFP experiment, E.coli strains expressing gfp driven by different promoters were cultured separately in LB at 37° C. Early exponential growth phase cells (OD600 ~0.2) were collected and fixed immediately. For the antibiotic treatment experiment, K.pneumoniae clinical isolate MGH66 was cultured in MHB at 37° C. until early exponential phase. Then the culture was diluted to OD600 0.05 in MHB. After growing for two doublings (~40 min, OD600 ~0.2), the cultures were split into four equal volume cultures. One culture was left untreated, while the other three were treated with relevant antibiotic at breakpoint concentrations set by the Clinical and Laboratory Standards Institute (CLSI): 2 µg/mL for meropenem, 1 µg/mL for ciprofloxacin and 4 µg/mL for gentamicin. After 30 min, 7 mL of cells were collected from each of these cultures, and immediately proceeded with the cell fixation protocol. For the bulk RNA-seq experiments, samples were collected using the same treatment schemes, and three biological replicates were included in each condition. For the BIDMC35 experiment, BIDMC35 was cultured in LB medium at 37° C. until early exponential phase (OD600 ~0.2). 7 mL cells were then collected and immediately proceed with the cell fixation protocol.
# All reagents (Table 5) for cell fixation and permeabilization were kept ice-cold. […] (Digital Platform Rocker Shaker, VWR). […] Subsequent centrifugations were carried out at 7000 × g for 5 minutes at 4° C. […] Cells were centrifuged and resuspended in 700 µL50% Ethanol in PBS-RI. Cells were then washed twice with PBS-RI. After the second wash, cells were resuspended in 1 mL100 mM Tris-HCL (pH 7.5) supplemented with 0.1 U/uL NxGen RNase inhibitor.
# Insufficient permeabilization may result in inefficient rRNA depletion and gDNA removal. For 1 permeabilization reaction, up to 40 million cells were centrifuged and resuspended in 250 µL0.04% Tween-20 in 1x PBS. If more cells are desired, multiple parallel reactions can be set up. Immediately following a 3-minute incubation on ice, 1 mL cold PBS-RI was added, and cells were spun down and resuspended in 200 µL lysozyme mix (100 mM Tris (pH 8.0), 50 mM EDTA pH 8.0, 0.25 U/µL NxGen RNase Inhibitor, 2.5 mg/mL lysozyme). Cells were then incubated at 37° C. for 15 minutes. After the incubation, 1 mL PBS-RI was added and cells were washed twice with 175 µL PBS-RI. After the second wash, cells were resuspended in 150 µL PBS (without RNase inhibitor added) and cell concentrations were measured.
# Immediately after cell permeabilization, up to 40 million cells were centrifuged and resuspended in 11 µL nuclease-free H2O. 2 µL NEBNext Bacterial rRNA depletion solution and 2 µL Probe Hybridization Buffer (NEB, CN E7850) were mixed with cells on ice. The hybridization was conducted per the following (lid temperature set to 55° C.): 50° C. for 2 minutes, ramp down to 22° C. at 0.1° C. /second, and hold at 22° C. for 5 minutes. Probe hybridization was immediately followed by RNase H digestion by mixing the probe-hybridized cells with 2 µL RNase H reaction buffer, 2 µL Thermostable RNase H (NEB, CN E7850), and 1 µL nuclease-free H2O, followed by a 30-minute incubation at 50° C. (lid temperature set to 55° C.). […] The reaction was incubated at room temperature for 30 minutes, and the DNase treatment was stopped by adding 1 µL Stop Solution (50 mM EDTA) and incubating at 50° C. for 10 minutes. After the incubation, cells were centrifuged and washed twice with 100 µL PBS-RI. After the second wash, cells were resuspended in 20 µL0.5x PBS supplemented with 1 U/µL SUPERase-In RNase inhibitor and used immediately for in-cell reverse transcription.
# [2] = test system: UCI38; assay: MIC by standard microdilution, strain UCI38; type: cell-based, K. pneumoniae; conditions: for MIC: Klebsiella pneumoniae
# Protocol: (§2) The cells for flow cytometry were prepared using the same scheme as the meropenem-treated sample for BacDrop. After treating with meropenem at 2 µg/mL for 30 minutes, cells were diluted into PBS at the final concentration of 10^6 cells/mL and immediately run through flow cytometer. For the flow cytometry including dead-cell staining, 10 µL propidium iodide (1 mg/mL) (Invitrogen, cat# P1304MP) was mixed with 1 mL PBS. Cells after treatment were then diluted in the staining buffer at the final concentration of 10^6 cells/mL, and incubated in the dark at room temperature for 15 minutes followed by running through flow cytometer. To sort GFP-low and GFP-high populations, cells were run through fluorescence-activated cell sorting (FACS). Applicants sorted ~10^6 cells into 2 mL LB without or with meropenem (2 µg/mL) from each population. A 50 µL aliquot from cells sorted in LB medium without antibiotics was immediately diluted and plated on LB agar plates without antibiotics. The colony forming unites (CFU) on LB agar plates were enumerated to calculate the survival rates. The rest of the cells was used to measure MICs using the standard microdilution protocol^29 or proceeded with the persister assay. For the persister assay, cells were cultured at 37° C. with shaking. At each time points, a 50 µL aliquot was taken, diluted and plated on LB agar plates without antibiotics. Three replicates were performed in each experiment.
# [3] = test system: K. pneumoniae MGH66; assay: Bulk RNA-seq of antibiotic-treated MGH66; type: cell-based; conditions: MGH66, OD600 ~0.2, 30 minutes treatment
# Protocol: as §1
# To construct sequencing libraries from bacterial cultures, cell pellets collected from 1 mL early exponential phase cultures were re-suspended in 500 µL TRIzol Reagents (ThermoFisher, CN 15596026) and frozen at -80 C for at least 20 min. Cells were then thawed and mixed with 250 µL of 0.1 mm diameter Zirconia/Silica beads (BioSpec Products), and lysed mechanically via bead-beating for 90 second at 10 m/sec on a FastPrep (MP Bio). After addition of 0.1 mL chloroform, each sample tube was mixed thoroughly by inversion, incubated for 3 minutes at room temperature, and centrifuged at 12,000 xg for 15 minutes at 4° C. […]
# [4] = test system: BIDMC35; assay: MIC by standard microdilution, strain BIDMC35; type: cell-based, K. pneumoniae; conditions: for MIC: Klebsiella pneumoniae
# Protocol: as §2
# [5] = test system: MGH66; assay: MIC by standard microdilution, strain MGH66; type: cell-based, K. pneumoniae; conditions: for MIC: Klebsiella pneumoniae
# Protocol: as §2
# [6] = test system: MGH66:pBA D: cspD; assay: MIC by standard microdilution, strain MGH66:pBAD:cspD; type: cell-based, K. pneumoniae; conditions: cspD induced with 1% arabinose
# Protocol: as §2, with “Three replicates were performed in each experiment.” left out
# [7] = test system: MGH66:PcspD:gfp sorted subpopulations; MGH66 over-expressing cspD; assay: Persister assay (CFU over time under meropenem); type: cell-based, K. pneumoniae; conditions: meropenem 2 µg/mL
# Protocol: as §2, with “Three replicates were performed in each experiment.” left out
# [8] = test system: MGH66; assay: RNA FISH of meropenem-treated MGH66; type: cell-based, K. pneumoniae; conditions: meropenem-treated MGH66, 20 fields of view
# Protocol: RNA FISH probes were designed using Design Probes tool of DECIPHER^32. 3 - 5 probes were designed for each target gene (Table 11). Probes were synthesized at Integrated DNA technologies and labeled with either Cy3 or Alex488 dye at the 5′. Probes of the same gene were pooled together and diluted into 10 µM stocks. Meropenem-treated MGH66 cells were fixed and permeabilized using the same protocol as the cell fixation and permeabilization steps in BacDrop. The hybridization was carried out in 40% hybridization buffer at 50° C. overnight and the following washing steps of washing were performed as described previously^33. Cells were imaged using the DeltaVision widefield deconvolution imaging system with a 60x objective. ImageJ was used for image data analysis and cell quantification.
# [9] = test system: MGH66; assay: Killing kinetics of MGH66 treated with antibiotics (CFU); type: cell-based, K. pneumoniae; conditions: MGH66, at 30 minutes
# Protocol: At each time points, cells from meropenem treatment (green), Ciprofloxacin treatment (blue), Gentamicin treatment (purple), and the untreated samples were diluted and plated on LB agar plates without antibiotics. CFUs from each condition were normalized to the CFUs of the untreated samples at the same time points to calculate the killing rates for each time points. The experiment was repeated three times and the error bars are plotted as standard deviation.
# [10] = test system: E. coli 10ß; assay: MIC by standard microdilution, strain E. coli 10ß; type: cell-based
# Protocol: as §2, with “Three replicates were performed in each experiment.” left out
# [11] = test system: MGH66:PyhcN:gfp and MGH66:PcspD:gfp; assay: Flow cytometry/FACS of GFP reporter strains with live/dead staining; type: cell-based, K. pneumoniae
# Description: (§3) Applicants amplified the promoter region of cspD or yhcN from MGH66 and ligated it into pUA139^26 using the BamHI and XhoI sites, resulting in pUA139-PcspD and pUA139-PyhcN. The construct was then transformed into E.coli DH5a and the plasmids were extracted and verified using Sanger sequencing. Electrocompetent cells of MGH66 was made as previously reported^22. The extracted plasmids were then transformed into MGH66 via electroporation, generating MGH66: PcspD:gfp and MGH66: PyhcN:gfp.
# as §2
# [12] = test system: MGH66: PyhcN:gfp; assay: MIC by standard microdilution, reporter strain MGH66: PyhcN:gfp; type: cell-based, K. pneumoniae
# Description: as §3
# (§4) The cells for flow cytometry were prepared using the same scheme as the meropenem-treated sample for BacDrop. After treating with meropenem at 2 µg/mL for 30 minutes, cells were diluted into PBS at the final concentration of 10^6 cells/mL and immediately run through flow cytometer. For the flow cytometry including dead-cell staining, 10 µL propidium iodide (1 mg/mL) (Invitrogen, cat# P1304MP) was mixed with 1 mL PBS. Cells after treatment were then diluted in the staining buffer at the final concentration of 10^6 cells/mL, and incubated in the dark at room temperature for 15 minutes followed by running through flow cytometer. To sort GFP-low and GFP-high populations, cells were run through fluorescence-activated cell sorting (FACS). Applicants sorted ~10^6 cells into 2 mL LB without or with meropenem (2 µg/mL) from each population. […]
# [13] = test system: MGH66: PcpsD:gfp; assay: MIC by standard microdilution, reporter strain MGH66: PcpsD:gfp; type: cell-based, K. pneumoniae
# Description: as §3, §4
# [14] = meropenem-treated MGH66, 2 µg/mL, 30 min
# [15] = 30 minutes of meropenem treatment
compound,measurement,setting,value
"O=C(O)c1cn(C2CC2)c2cc(N3CCNCC3)c(F)cc2c1=O [Ciprofloxacin, ciprofloxacin]",heterogeneity of single-cell transcriptional response,"[1]; MGH66, 30 min treatment",did not detect obvious heterogeneity of response
same,MIC,[2],32 µg/mL
same,transcriptional response in bulk RNA-seq relative to untreated control,[3],induced genes involved in SOS response
same,MIC,[4],> 32 µg/mL
same,MIC,[5],0.03 µg/mL
"C[C@@H](O)[C@H]1C(=O)N2C(C(=O)O)=C(S[C@@H]3CN[C@H](C(=O)N(C)C)C3)[C@H](C)[C@H]12 [Meropenem, meropenem]","cells co-expressing cspD and rihC, BacDrop",[1]; meropenem-treated MGH66,~ 0.7%
same,"cells co-expressing rseB + yidC, BacDrop",[1]; meropenem-treated MGH66,~ 8%
same,cells in DNA replication and cell division subpopulation (cluster 9),[1]; [14],1%
same,cells in cell wall/membrane synthesis subpopulation (cluster 7 and 11),[1]; [14],5.7%
same,cells in cspD-expressing subpopulation (cluster 10),[1]; [14],0.7%
same,cells in strongest stress response subpopulation (clusters 5 and 12),[1]; [14],8%
same,effect of cspD induction on MIC,[6],did not affect
same,persister cells in MGH66 over-expressing cspD versus without induction,[7]; 1% arabinose induction,~ 100 times
same,tolerant cells/persisters in GFP-high versus GFP-low sorted subpopulation,[7]; MGH66:PcspD:gfp sorted after 30-minute exposure,enriched for meropenem tolerant cells
same,MIC,[2],0.03 µg/mL
same,"cells co-expressing cspD and rihC, RNA FISH",[8],~ 0.85%
same,"cells co-expressing rseB + yidC, RNA FISH",[8],~ 12%
same,impact on cell killing,[9],same impact on cell killing as ciprofloxacin and gentamicin
same,transcriptional response in bulk RNA-seq relative to untreated control,[3],minimal transcriptional responses
same,MIC,[4],> 32 µg/mL
same,MIC,[10]; Escherichia coli,< 0.03 µg/mL
same,dead cells in the gated population (propidium iodide),[11]; [15],~ 15.2%
same,live cells in the GFP-high population,[11]; [15],about 94%
same,live cells in the GFP-low population,[11]; [15],approximately 80%
same,heterogeneous expression of yhcN or cspD GFP reporters,"[11]; MGH66:PyhcN:gfp, relative to untreated control",induced heterogeneous expression
same,MIC,[5],0.03 µg/mL
gentamicin,heterogeneity of single-cell transcriptional response,"[1]; MGH66, 30 min treatment",did not detect obvious heterogeneity of response
same,treated cells belonging to the heat-shock response cluster,"[1]; MGH66, 30 min treatment, across both replicates",66%-71%
same,MICs,[2],2 µg/mL
same,MICs,[12],1 µg/mL
same,transcriptional response in bulk RNA-seq relative to untreated control,[3],induced a group of heat shock chaperone proteins
same,MICs,[4],0.5 µg/mL
same,MICs,[10],<0.03 µg/mL
same,MICs,[13],1 µg/mL
same,MICs,[5],1 µg/mL
